Here are results for eight molecules from patent US20230232837A1, “NOVEL FORMULATIONS FOR INCREASING THE GERMINATION RATE OF FUNGAL SPORES” (priority 2020, published 2023).

Series [1] deals with Trichoderma asperellum strain B35. As to the kind of experiment: Germination rate after air-drying with protectants, strain B35. The class given is cell-based. The settings on record: after air-drying at room temperature overnight; material:spore 1:1, lecithin 1:10. Here is the method:
(§1) The spores of Trichoderma strains T1 and B35 were prepared by Solid State Fermentation (SSF) and harvested, then centrifuged to form a spore paste. T1 is used here as an abbreviation for Trichoderma atroviride strain T1 with a culture collection No. I123-7 (French collection), while B35 is used here as an abbreviation for Trichoderma asperellum strain B35, deposited in the German Culture collection under the No. DSM33245.
(§2) For the air-drying experiments (explained further below), in order to get a protectant-to-spore mass ratio of 1:1 (except for lecithin), 12 g of the spore paste was mixed with 3 g of the protectant in order to get a total of 15 g. The spore concentration in the paste is about 25%, which makes then 3 g of spore in contact with 3 g of protectant. The mixture of protectants and paste were mixed for 5 min and 3400 rpm using an Ultra-Turrax equipment (IKA T25). In case of the test for lecithin, 1.5 g of a 20% lecithin solution was added to 13.5 g of spore paste, then mixed according to the afore-mentioned procedure (5 min, 3400 rpm). After mixing, the mixture was poured into a tray and dried at room temperature overnight.
(§3) Germination rates were measured according to the following protocol: The sample with the spores is dispersed in sterile tap water to get a homogenous spore solution. Depending on the initial spore concentration, the sample may need to be diluted up to 1E+07 spores/mL. This dilution then is spread on agar plates (often, 100 μl of dilution spread on a Potato Dextrose Agar plate) with a sterile Drigalski spatula. Depending on the strain type, the plates are incubated at a certain temperature (for example 20° C. for Trichoderma used here) for some time (here 19-24 hours is used) to allow time for germination and forming hyphae. Subsequently, the spores on the plates are analyzed under the microscope in 8 to 10 randomly chosen areas. At least 200 germinated and non-germinated spores are counted. The viability (%) is calculated by 100 times the number of germinated spores to the total spores counted.
(§4) A test was conducted to compare lecithin against other known microbial stabilizers and protectant materials. These materials include different sugars, proteins, skim milk powder, and others. Initially, an air-drying technique in room temperature was used.
(§5) After the spores were air dried with different protectants at room temperature overnight, the germination rate and total dry matter content (DMC, which is a way of expressing total moisture content) of the samples were analyzed.

Series [2] deals with Trichoderma atroviride strain T1. As to the kind of experiment: Germination rate after air-drying with protectants, strain T1. In kind it is cell-based. The note with it: after air-drying at room temperature overnight; material:spore 1:1, lecithin 1:10. On the procedure: as §1, §2, §3, §4, §5
The nature of series [3]: Dry matter content / residual moisture by heating balance. The class given is physicochemical. The settings on record: dry matter content after air-drying; for DMC (%) B35: strain B35; for DMC (%) T1: strain T1. On the procedure:
For all experiments conducted, dry matter content (as related to total moisture content) was measured by a heating balance apparatus (Sartorius MA 160).
as §5

With `OC[C@@H](O)[C@H](O)[C@H](O)[C@@H](O)CO` [Ducitol/Galactitol], the “Germination rate (%) B35” value in series [1] is reported as “not soluble”. Also, the “Germination rate (%) T1” value in series [2] is reported as “not soluble”.
Take `OC[C@@H](O)[C@@H](O)[C@H](O)[C@H](O)CO` [Mannitol]: in series [3], the “DMC (%) B35” value stood at 94.88% and the “DMC (%) T1” value worked out at 97.01%. Moreover, in series [1], the “Germination rate (%) B35” value was 51.40%. Moreover, the “Germination rate (%) T1” value in series [2] is recorded as 69.95%.
For `O[C@H]1[C@H](O)[C@@H](O)[C@H](O)[C@@H](O)[C@H]1O` [Myo-Inositol], in series [3], the “DMC (%) B35” value is given as 95.59% and the “DMC (%) T1” value turned out to be 96.6%. Moreover, the “Germination rate (%) B35” value in series [1] turned out to be 59.05%. In series [2], the “Germination rate (%) T1” value came out at 65.03%.
Take `OC[C@@H](O)[C@@H](O)[C@H](O)[C@@H](O)CO` [Sorbitol/Glucitol]: the “DMC (%) B35” value in series [3] was found to be 93.99%. The “Germination rate (%) B35” value in series [1] is 13.00%.
As for `OC[C@H]1O[C@@](CO)(O[C@H]2O[C@H](CO)[C@@H](O)[C@H](O)[C@H]2O)[C@@H](O)[C@@H]1O` [Sucrose], the “DMC (%) B35” value in series [3] was determined as 91.59%. Moreover, the “Germination rate (%) B35” value in series [1] came out at 36.45%.
In the case of `OC[C@H]1O[C@H](O[C@H]2O[C@H](CO)[C@@H](O)[C@H](O)[C@H]2O)[C@H](O)[C@@H](O)[C@@H]1O` [Trehalose], in series [3], the “DMC (%) B35” value is reported as 91.84% and the “DMC (%) T1” value stood at 90.35%. Also, the “Germination rate (%) B35” value in series [1] stood at 43.18%. For the same molecule, the “Germination rate (%) T1” value in series [2] is on record as 68.75%.
For the molecule Chitosan, the “Germination rate (%) B35” value in series [1] was “not soluble”. For the same molecule, in series [2], the “Germination rate (%) T1” value is “not soluble”.
In the case of Maltodextrin, in series [3], the “DMC (%) B35” value came out at 92.49% and the “DMC (%) T1” value was determined as 94.46%. In addition, in series [1], the “Germination rate (%) B35” value was 20.38%. Further, in series [2], the “Germination rate (%) T1” value turned out to be 54.55%.
